From paper PMC5480602 (Slas Discovery, 2017)

What was measured:
α4β2 nAChR = α4β2 nAChR (Homo sapiens, UniProt P17787+P43681); experiment: cell-based
[1] = cited from earlier work
α3β4 nAChR = α3β4 nAChR (Homo sapiens, UniProt P30926+P32297); experiment: cell-based
α3β4α5 nAChR = α3β4α5 nAChR (Homo sapiens, UniProt P30532+P30926+P32297); experiment: cell-based
[2] = read-out: plasma levels (Cmax); in patients; cited from earlier work
[3] = cited from earlier work; remark: listed apart in the source

Chain of α3β4α5 nAChR (P32297 32-505): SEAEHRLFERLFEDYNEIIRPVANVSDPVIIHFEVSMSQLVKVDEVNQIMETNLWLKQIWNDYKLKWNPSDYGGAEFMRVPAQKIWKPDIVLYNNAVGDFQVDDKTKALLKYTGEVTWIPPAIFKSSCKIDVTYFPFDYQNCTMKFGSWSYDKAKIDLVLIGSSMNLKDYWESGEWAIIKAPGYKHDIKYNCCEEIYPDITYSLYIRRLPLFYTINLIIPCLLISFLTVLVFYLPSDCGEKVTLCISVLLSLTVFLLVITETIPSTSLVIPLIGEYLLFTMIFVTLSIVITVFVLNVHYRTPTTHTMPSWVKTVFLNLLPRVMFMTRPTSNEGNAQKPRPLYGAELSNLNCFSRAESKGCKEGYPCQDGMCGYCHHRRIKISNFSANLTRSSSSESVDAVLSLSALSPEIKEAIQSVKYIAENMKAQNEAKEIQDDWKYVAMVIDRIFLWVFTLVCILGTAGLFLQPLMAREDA
Chain of α3β4α5 nAChR (P30926 22-498): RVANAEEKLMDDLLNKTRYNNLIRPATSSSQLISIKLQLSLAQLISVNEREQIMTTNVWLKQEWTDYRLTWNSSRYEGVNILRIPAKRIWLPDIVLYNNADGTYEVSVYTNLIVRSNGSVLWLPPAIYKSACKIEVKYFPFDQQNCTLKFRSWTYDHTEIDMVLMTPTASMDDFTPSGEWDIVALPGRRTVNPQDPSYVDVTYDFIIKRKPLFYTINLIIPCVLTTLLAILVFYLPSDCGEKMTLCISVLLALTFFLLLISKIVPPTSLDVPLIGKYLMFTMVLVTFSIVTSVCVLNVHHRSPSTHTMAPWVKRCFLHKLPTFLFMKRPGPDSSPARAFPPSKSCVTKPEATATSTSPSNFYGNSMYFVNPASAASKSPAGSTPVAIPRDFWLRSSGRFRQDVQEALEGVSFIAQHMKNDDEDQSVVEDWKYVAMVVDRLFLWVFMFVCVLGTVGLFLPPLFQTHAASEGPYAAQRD
Chain of α3β4α5 nAChR (P30532 23-468): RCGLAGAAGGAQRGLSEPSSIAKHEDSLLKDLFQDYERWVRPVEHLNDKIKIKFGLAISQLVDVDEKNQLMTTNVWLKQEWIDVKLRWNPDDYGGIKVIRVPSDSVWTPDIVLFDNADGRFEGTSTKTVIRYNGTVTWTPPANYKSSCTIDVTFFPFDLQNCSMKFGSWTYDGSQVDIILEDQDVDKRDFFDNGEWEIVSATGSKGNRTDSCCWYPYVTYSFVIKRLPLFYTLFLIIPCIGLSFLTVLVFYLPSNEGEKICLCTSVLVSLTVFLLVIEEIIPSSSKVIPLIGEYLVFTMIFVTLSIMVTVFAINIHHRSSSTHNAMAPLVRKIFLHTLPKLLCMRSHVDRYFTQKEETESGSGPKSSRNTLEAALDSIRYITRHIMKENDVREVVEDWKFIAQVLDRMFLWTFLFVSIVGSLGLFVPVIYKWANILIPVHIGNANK
Chain of α3β4 nAChR (P32297 32-505): as the sequence (P32297 32-505) above
Chain of α3β4 nAChR (P30926 22-498): as the sequence (P30926 22-498) above
Chain of α4β2 nAChR (P43681 29-627 limits assumed): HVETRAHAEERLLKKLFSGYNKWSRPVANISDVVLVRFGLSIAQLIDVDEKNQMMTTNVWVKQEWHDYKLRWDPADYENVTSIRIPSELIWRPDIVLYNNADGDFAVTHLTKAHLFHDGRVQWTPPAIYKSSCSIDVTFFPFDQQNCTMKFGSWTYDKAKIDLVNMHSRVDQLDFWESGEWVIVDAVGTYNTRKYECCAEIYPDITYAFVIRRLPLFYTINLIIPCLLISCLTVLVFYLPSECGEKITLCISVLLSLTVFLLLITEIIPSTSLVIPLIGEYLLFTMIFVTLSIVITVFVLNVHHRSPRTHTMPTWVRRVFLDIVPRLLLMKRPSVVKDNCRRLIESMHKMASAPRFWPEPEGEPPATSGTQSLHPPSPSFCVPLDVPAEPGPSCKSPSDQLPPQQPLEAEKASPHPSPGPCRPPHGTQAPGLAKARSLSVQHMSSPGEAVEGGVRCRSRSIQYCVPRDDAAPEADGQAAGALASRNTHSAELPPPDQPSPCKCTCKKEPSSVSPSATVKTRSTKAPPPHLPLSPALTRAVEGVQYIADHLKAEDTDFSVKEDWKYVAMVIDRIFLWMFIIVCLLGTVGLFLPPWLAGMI
Chain of α4β2 nAChR (P17787 26-502): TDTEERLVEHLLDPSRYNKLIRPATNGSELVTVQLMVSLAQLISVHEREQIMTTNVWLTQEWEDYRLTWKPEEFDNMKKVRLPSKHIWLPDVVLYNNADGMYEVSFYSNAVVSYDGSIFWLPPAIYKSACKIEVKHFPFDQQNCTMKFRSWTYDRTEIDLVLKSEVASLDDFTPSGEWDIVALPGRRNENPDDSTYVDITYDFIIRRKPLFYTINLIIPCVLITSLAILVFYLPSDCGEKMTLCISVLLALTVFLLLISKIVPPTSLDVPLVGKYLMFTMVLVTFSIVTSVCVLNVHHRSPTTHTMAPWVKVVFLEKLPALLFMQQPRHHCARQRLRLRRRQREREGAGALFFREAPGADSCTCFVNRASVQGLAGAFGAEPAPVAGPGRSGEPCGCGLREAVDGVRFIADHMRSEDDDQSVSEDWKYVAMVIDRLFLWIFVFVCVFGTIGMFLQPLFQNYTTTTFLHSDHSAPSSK

SMILES | IC50 (α4β2 nAChR) [nM] | efficiency of crossing the blood-brain barrier [1] | IC50 (α3β4 nAChR) [nM] | IC50 (α3β4α5 nAChR) [nM] | Cmax [2] [nM] | efficiency in crossing the blood-brain barrier [1] | plasma concentrations [3]
NC1=NCC2c3ccccc3Cc3ccccc3N12 (stereo not shown) [epinastine] | ≥ 1000 | ~ 10% | ≥ 1000 | ≥ 1000 | ~100 | – | –
N=C(N)c1ccc(OCCCCCOc2ccc(C(=N)N)cc2)cc1 [pentamidine] | – | – | – | – | – | ~ 0.04% | ~ 1.8 µM
